Experimental findings from US5344843A, “Cat-1 inhibitors, pharmaceutical compositions and methods of use” (Hoffman-La Roche Inc., priority 1992, dated 1994) are described below.

Counter-ions that a name gives are not always drawn.

The target of test [1] is T1, CAT-1 (carnitine acyltransferase 1) (Rattus norvegicus, UniProt Q63704).
T1 construct: This preparation is used as the isolated mitochondrial preparation; from tissue; host or cells: rat heart (atria removed), isolated mitochondria
T1 sequence (Q63704 1-772): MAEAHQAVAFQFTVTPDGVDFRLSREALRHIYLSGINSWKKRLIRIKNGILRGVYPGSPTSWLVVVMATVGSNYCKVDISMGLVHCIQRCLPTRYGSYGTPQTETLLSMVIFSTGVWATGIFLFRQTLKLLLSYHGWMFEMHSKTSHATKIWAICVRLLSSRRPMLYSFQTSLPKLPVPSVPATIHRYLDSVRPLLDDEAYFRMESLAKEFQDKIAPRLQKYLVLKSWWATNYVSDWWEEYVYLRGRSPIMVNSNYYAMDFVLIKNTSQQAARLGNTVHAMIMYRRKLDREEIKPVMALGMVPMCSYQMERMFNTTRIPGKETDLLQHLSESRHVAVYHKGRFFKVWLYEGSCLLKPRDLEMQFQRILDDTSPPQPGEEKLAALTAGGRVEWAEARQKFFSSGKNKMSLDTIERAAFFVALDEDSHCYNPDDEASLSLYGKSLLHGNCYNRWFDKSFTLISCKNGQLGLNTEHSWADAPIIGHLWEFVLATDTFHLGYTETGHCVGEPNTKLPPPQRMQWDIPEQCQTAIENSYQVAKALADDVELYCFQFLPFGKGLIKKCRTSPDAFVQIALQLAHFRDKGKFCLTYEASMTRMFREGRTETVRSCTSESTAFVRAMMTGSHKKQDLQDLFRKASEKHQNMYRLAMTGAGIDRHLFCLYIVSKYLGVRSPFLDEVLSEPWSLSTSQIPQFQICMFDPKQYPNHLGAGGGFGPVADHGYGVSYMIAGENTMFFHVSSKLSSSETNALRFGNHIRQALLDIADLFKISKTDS
Description: Primary Screen--Inhibition of CAT-1 in isolated mitochondria. Type of test: biochemical. As to conditions: rat heart mitochondria, reduction of palmitoyl carnitine formation by 50%; read-out: Primary Screen IC50.
Description: Primary Screen--Inhibitors of CAT-1 in 1Mitochondria
(a). Preparation of Mitochondria
The heart is rapidly removed from an anesthetized rat (sodium pentabarbitol) and placed in ice-cold homogenization buffer (sucrose, 250 mM; Tris, 10 mM; EDTA, 1 mM; BSA, 0.01%; pH=7.4). The atria and extraneous tissue are removed and the remainder is chopped with scissors. The pieces are rinsed in homogenization buffer before being homogenized in 10 mL of the same buffer for 5-7 seconds. The homogenate is then diluted with homogenization buffer (40 total volume) and centrifuged at 200 g for 20 minutes. The supernatant is withdrawn and centrifuged at 7000 g for 20 minutes and the resulting pellet is isolated, resuspended in 40 mL of homogenization buffer and centrifuged once more at 7000 g for 20 minutes. The isolated pellet is resuspended in 10 mL of homogenization buffer and stored at 4° C. until use. This preparation is used as the isolated mitochondrial preparation.
(b). Inhibition of CAT-1 assay
Isolated mitochondria (20 μL) are incubated with 60 μL of Tris/sucrose buffer (sucrose, 500 mM; Tris, 20 mM; KCl, 100 mM; EDTA, 2 mM; pH=7.0 plus 83 μM palmitoyl CoA, and BSA, 0.8 mg/mL and 10^-4 to 10^-10 M of the drug to be tested. After 10 minutes at 30° C., the reaction is started by addition of 10 μL of ^3 H-carnitine (final concentration=250 μM). After 5 minutes, the reaction is terminated by the addition of ice cold 70% perchloric acid (PCA). The precipitated solids so formed, containing the insoluble product of the enzyme palmitoyl carnitine, are captured on filter paper. The filter paper is washed with 7% PCA, then dried and placed in scintillation vials with 10 mL of scintillant (Aquasol, New England Nuclear) and counted for radioactivity. The rate of the reaction is assessed by the difference in radioactivity between zero time and five minutes in the absence of test compound. The ability of test compounds at selected concentrations to inhibit CAT-1 is determined by their ability to reduce the formation of the radioactive product. The IC50 of the test compound is the concentration of test compound that reduces the formation of radioactive product by 50%.

Test [2] deals with T1, CAT-1 (carnitine acyltransferase 1). Description: Secondary Screen--Inhibition of CAT-1 in intact cardiac myocytes (hypoxia-induced increase in long-chain acylcarnitines). The settings on record: isolated rat cardiac myocytes; for IC50: 50% inhibition of hypoxia-induced increase in long-chain acylcarnitines; for inhibition: hypoxia. Set-up: inhibition: dose or concentration left out as unconfirmed. Type of test: cell-based.
Description: Secondary Screen--Inhibition of CAT-1 in intact Cardiac Myocytes
(a) Preparation of Isolated Rat Cardiac Myocytes
Four hearts are excised from anesthetized rats and perfused retrogradly via the Langendorf technique. Each heart receives 100 mL of Krebs (NaCl, 118.4 mM; KCL, 4.6 mM; NaH2 PO4, 1.0 mM; NaHCO3, 20 mM; MgSO4, 2 mM; CaCl2, 50 μM; glucose, 11.0 mM), 100 mL of Ca++ free Krebs and finally 100 mL of 0.5% collagenase (Boehringer Mannhelm, type 1) in Hepes (NaCl, 115 mM; KCl, 5 mM; sucrose, 35 mM; glucose, 10 mM; Hepes, 10 mM; taurine, 4 mM; MgSO4, 2 mM; CaCl2, 50 μM). After these perfusions, the hearts are chopped into pieces, approx. 0.5 cm×0.5 cm and placed in four 125 mL plastic bottles along with 25 mL of collagenase/Hepes situated in a water bath maintained at 35° C. The pieces of cardiac tissue in each bottle are agitated by using a Harvard respirator connected to four glass syringes, which sucks the tissue up and down each tube during each respiratory cycle. After fifteen minutes, the collagenase/Hepes is removed and replaced with fresh collegenase/Hepes and the process repeated. The collegenase/Hepes from the subsequent fifteen minute harvests are centrifuged at 500 g to pellet the cells which are then resuspended in Hepes buffer. After six harvests, all cells are pelleted, resuspended in 2×26.5 mL of Hepes plus BSA (350 mg) and layered on top of 2×percoll gradients (21.15 mL percoll, 2.35 mL NaCl, 6 drops acetic acid). This is centfifuged at 3000 g for eight minutes forming a percoll gradient which results in viable cells being separated from damaged cells. The viable cells are removed, washed with Hepes and finally resuspended in 25 mL of Hepes.
The isolated cardiac myocytes (2 mL; approximately 1×10^6 cells) are separated into six glass pods. Into four of these are placed selected concentrations of the compound to be tested, and the cells are incubated for twenty minutes, after which the pods are centrifuged at 300 g for three minutes. 300 μL of normoxic Hepes is placed in one of the pods not containing compound and then all pods are placed in a hypoxic chamber (N2 atmosphere). Oxygen is fed via small bore steel tubes to the pod containing the normoxic buffer, while the other five pods receive pre-purified argon (99.998% pure). After two minutes, Hepes (pre-gassed with argon for at least twelve hours) is fed into the five hypoxic pods. This hypoxic environment (pO2 <10 mm Hg) is maintained for twenty minutes, after which the cells and pods are frozen by contact with a metal block precooled in liquid N2. The pods are then removed from the chamber and stored at -70° C. The carnitine assay is performed, as described below in (c), to determine the amount of long-chain acylcarnitine in the cells from the normoxic, hypoxic and hypoxic plus compound samples. […] Thus the IC50 in this screen is the concentration of test compound which produces a 50% inhibition of the hypoxia-induced increase in long-chain acylcarnitines.
(c) Long-chain Acylcarnitine Assay.
The frozen cell samples are thawed, mixed and homogenized with 40 μL of 70% PCA. The homogenate is transferred to eppendorf tubes while the homogenization tube and the glass pod is rinsed with 500 μL of 7% PCA, with the rinse being added to the eppendorf tube. This is then centrifuged at 1000 g for two minutes to pellet the precipitate (containing the long-chain acylcarnitine) and the supernatant is discarded. The pellet is washed twice with 500 μL of 7% PCA, the supernatants being discarded. The pellet is then hydrolyzed (to separate the acyl unit from carnitine to yield free carnitine) by the addition of 200 μL of aleionized H2 O and 50 μL of 5N KOH and incubated at 70° C. for ninety minutes.

What is called IC50 is the concentration needed to halve the response being measured. What is called inhibition is the relative decrease from the control value, in per cent.

With `O=C(OCCOCCOCCO)C(=O)c1ccc(OCCOc2ccc3ccccc3c2)cc1` [Example 105, 4-[[2-(2-naphthalenyloxy)ethyl]oxy]-alpha-oxobenzeneacetic acid 2-[2-(2-hydroxyethoxy)ethoxy]ethyl ester], the IC50 was 40 nM in test [1] and 75000 nM in test [2].

For the compound `CCC(C)(C)C(=O)OCc1cccc(C)c1C#CCOc1ccc(C(=O)C(=O)O)cc1` [Example 212, 4-[3-[2-[(2,2-dimethyl-1-oxobutoxy)methyl]-6-methylphenyl]-2-propynyloxy]-alpha-oxobenzeneacetic acid (1:1) morpholine salt], the IC50 in test [1] was found to be 470 nM. The inhibition in test [2] amounted to 47%.

As to `O=C(O)C(=O)c1ccc(OCCOc2ccccc2)cc1` [Example 37, alpha-oxo-4-[[2-(phenoxy)ethyl]oxy]benzeneacetic acid], the IC50 in test [1] worked out at 2000 nM; in test [2], 37000 nM.

In test [2], `CC(C)c1nc(-c2ccccc2)n(-c2ccc(F)cc2)c1/C=C/COc1ccc(C(=O)C(=O)O)cc1` [Example 243, (E)-4-[3-[1-(4-fluorophenyl)-4-(1-methylethyl)-2-phenyl-1H-imidazol-5-yl]-2-propenyloxy]-alpha-oxobenzeneacetic acid] returned an IC50 of 7000 nM.

For `CO/N=C(/C(=O)O)c1ccc(OCCOc2ccc3ccccc3c2)s1` [Example 306, (Z)-alpha-(methoxyimino)-5-[2-(2-naphthalenyloxy)ethoxy]-2-thiopheneaceticacid (2:1) hydrate], the results for the IC50 in test [1] and in test [2] were 300 nM and 7000 nM, respectively.

Regarding `CCC(C)(C)C(=O)OCc1cccc(C)c1OCCOc1ccc(/C(=N/OC)C(=O)O)cc1` [Example 304, (Z)-4-[2-[2-[(2,2-Dimethyl-1-oxobutoxy)methyl]-6-methylphenyloxy]ethoxy]-alpha-methoxyiminobenzeneacetic acid], the figures for the IC50 in test [1] and in test [2] were 3300 nM and 5000 nM, respectively.

Consider `O=C(O)C(=O)c1ccc(OCCOc2ccc3ccccc3c2)s1` [Example 4, 5-[[2-(2-naphthalenyloxy)ethyl]oxy]-alpha-oxo-2-thiopheneacetic acid], for which the values for the IC50 in test [1] and in test [2] were 50 nM and 1000 nM, respectively.

Regarding `O=C(O)C(=O)c1ccc(OCCOC23CC4CC(CC(C4)C2)C3)cc1` [Example 103, alpha-oxo-4-[[2-[tricyclo(3.3.1.1-3,7)dec-1-yloxy]ethyl]oxy]benzeneacetic acid], the 50% inhibitory concentration (IC50) in test [1] was 1500 nM; in test [2], 40000 nM.

For `O=C(OCC(O)CO)C(=O)c1ccc(OCCOc2ccc3ccccc3c2)s1` (racemic) [Example 5, rac.-5-[[2-(2-naphthalenyloxy)ethyl]oxy]-alpha-oxo-2-thiopheneacetic acid 2,3-dihydroxypropyl ester], the half-maximal inhibitory concentration (IC50) in test [1] stood at 40 nM; in test [2], 250 nM.

As to `O=C(O)C(=O)c1ccc(C(=O)NCCOc2ccc3ccccc3c2)cc1` [Example 177, 4-[[[2-(2-naphthalenyloxy)ethyl]amino]carbonyl]-alpha-oxobenzeneacetic acid], the results for the IC50 in test [1] and in test [2] were 400 nM and 25000 nM, respectively.

For the compound `O=C(O)C(=O)c1ccc(OCCOc2ccc3ccccc3c2)c(F)c1` [Example 199, 3-fluoro-4-[2-(2-naphthalenyloxy)ethoxy]-alpha-oxobenzeneacetic acid], the figures for the IC50 in test [1] and in test [2] were 170 nM and 600 nM, respectively.

For `CCC(C)(C)C(=O)OCc1cccc(C)c1OCCOc1ccc([C@H](N)C(=O)O)cc1` [Example 298, (S)-alpha-amino-4-[2-[2-[(2,2-dimethyl-1-oxobutoxy)methyl]-6-methylphenoxy]ethoxy]benzeneacetic acid], the IC50 in test [1] amounted to 2500 nM; in test [2], 30000 nM.

Regarding `C[N+](C)(C)CCOC(=O)C(=O)c1ccc(OCCOc2ccc3ccccc3c2)s1` [Example 7, 2-[[5-[[2-(2-naphthalenyloxy)ethyl]oxy]-alpha-oxo-2-thiopheneacetyl]oxy]-N,N,N-trimethylethanaminium iodide], the IC50 in test [1] worked out at 30 nM; in test [2], 100 nM.

For the compound `O=C(O)C(=O)c1ccc(OCCOC2CCCCCCC2)cc1` [Example 101, 4-[[2-(cyclooctyloxy)ethyl]oxy]-alpha-oxobenzeneacetic acid], the half-maximal inhibitory concentration (IC50) in test [1] was found to be 900 nM; in test [2], 50000 nM.

Take `CCCc1c(OCCCOc2ccc(C(=O)C(=O)O)cc2)ccc(C(C)=O)c1O` [Example 257, 4-[3-(4-acetyl-3-hydroxy-2-propylphenoxy)propoxy]-alpha-oxobenzeneacetic acid]: the 50% inhibitory concentration (IC50) in test [1] was found to be 380 nM; in test [2], 100 nM.

As to `O=C(O)C(=O)c1ccc(OCCSc2ccccc2)cc1` [Example 82, alpha-oxo-4-[[2-(phenylthio)ethyl]oxy]benzeneacetic acid], the figures for the IC50 in test [1] and in test [2] were 300 nM and 17500 nM, respectively.

`Cc1cc(C(=O)C(=O)O)ccc1OCCOc1ccc2ccccc2c1` [Example 181, 3-methyl-4-[2-(2-naphthalenyloxy)ethoxy]-alpha-oxobenzeneacetic acid]: the IC50 in test [1] was 400 nM; in test [2], 7500 nM.

Regarding `CN(O)C(=O)C(=O)c1ccc(OCCOc2ccc3ccccc3c2)cc1` [Example 299, N-hydroxy-N-methyl-4-[2-(2-naphthalenyloxy)ethoxy]-alpha-oxobenzeneacetamide], the IC50 in test [1] amounted to 1900 nM; in test [2], 8000 nM.

`O=C(O)C(=O)c1ccc(OCCOc2ccc3ccccc3c2)c([N+](=O)[O-])c1` [Example 179, 4-[2-(2-naphthalenyloxy)ethoxy]-3-nitro-alpha-oxobenzeneacetic acid]: the IC50 in test [1] turned out to be 200 nM; in test [2], 8000 nM.

Regarding `O=C(O)C(=O)c1ccc(OCCOC2CCCCC2)cc1` [Example 99, 4-[[2-(cyclohexyloxy)ethyl]oxy]-alpha-oxobenzeneacetic acid], the IC50 in test [1] worked out at 900 nM; in test [2], 20000 nM.

`O=C(O)C(=O)c1ccc(OCCCn2c(=O)c3ccccc3c3ccccc32)cc1` [Example 262, 4-[3-(5,6-dihydro-6-oxo-5-phenanthridinyl)propoxy]-alpha-oxobenzeneacetic acid]: in test [1], the IC50 turned out to be 1000 nM. Besides, the inhibition in test [2] was found to be 99%.

On to `O=C(O)C(=O)c1ccc(OCCCCOc2ccc3ccccc3c2)cc1` [Example 88, 4-[[4-(2-naphthalenyloxy)butyl]oxy]-alpha-oxobenzeneacetic acid], for which the results for the IC50 in test [1] and in test [2] were 170 nM and 3500 nM, respectively.

For the compound `O=C(O)C(=O)c1ccc(OCC(=O)c2cccc3ccccc23)cc1` [Example 284, 4-[2-(1-naphthalenyl)-2-oxoethoxy]-alpha-oxobenzeneacetic acid], the IC50 in test [1] amounted to 30 nM; in test [2], 800 nM.

As to `CCC(C)(C)C(=O)Oc1cccc2ccc(OCCOc3ccc(C(=O)C(=O)O)cc3)cc12` [Example 134, 4-[[2-[8-(2,2-dimethyl-1-oxobutoxy)-2-naphthalenyloxy]ethyl]oxy]-alpha-oxobenzeneacetic acid], the IC50 in test [1] is 600 nM; in test [2] it was 400 nM.

Consider `CCC(C)(C)C(=O)OCc1cccc(C)c1OCCOc1ccc(C(=O)C(=O)O)cc1` [Example 136, 4-[[2-[2-[(2,2-Dimethyl-1-oxobutoxy)methyl]-6-methylphenoxy]ethyl]oxy]-alpha-oxobenzeneacetic acid (2:1) hydrate], for which the IC50 in test [1] was found to be 7700 nM; in test [2], 900 nM.

As to `O=C(O)C(=O)c1ccc(OCCOC2CCCCCCC2)s1` [Example 9, 5-[[2-(cyclooctyloxy)ethyl]oxy]-alpha-oxo-2-thiopheneacetic acid], the IC50 in test [1] was determined as 1800 nM; in test [2], 8000 nM.

As to `O=C(O)C(=O)c1c(F)cc(OCCOc2ccc3ccccc3c2)cc1F` [Example 201, 2,6-difluoro-4-[2-(2-naphthalenyloxy)ethoxy]-alpha-oxobenzeneacetic acid], the half-inhibitory concentration (IC50) is 830 nM in test [1] and 7000 nM in test [2].

`CO/N=C(\C(=O)O)c1ccc(OCCOc2ccc3ccccc3c2)s1` [Example 307, (E)-alpha-(methoxyimino)-5-[2-(2-naphthalenyloxy)ethoxy]-2-thiopheneaceticacid]: the IC50 worked out at 1500 nM in test [1] and 5000 nM in test [2].

`CC(C)n1c(/C=C/COc2ccc(C(=O)C(=O)O)cc2)c(-c2ccc(F)cc2)c2ccccc21` [Example 241, (E)-4-[3-[3-(4-fluorophenyl)-1-(1-methylethyl)-1H-indole-2-yl]-2-propenyloxy]-alpha-oxobenzeneacetic acid (1:1) morpholine salt]: in test [2], the IC50 worked out at 12000 nM.

`CC(C)c1cccc(-c2ccc(F)cc2)c1OCCOc1ccc(C(=O)C(=O)O)cc1` [Example 234, 4-[2-[4'-fluoro-3-(1-methylethyl)[1,1'-biphenyl]-2-yloxy]ethoxy]-alpha-oxobenzeneacetic acid]: the inhibition in test [2] was determined as 90%.
